Data from patent publication US11292821B2, “Peptides and combination of peptides for use in immunotherapy against lung cancer, including NSCLC, SCLC and other cancers” (Immatics Biotechnologies GmbH, priority 2017, dated 2022).

Assays:
CD8+ T cells = assay: In vitro T-cell priming assay with aAPCs (in vitro immunogenicity for MHC class I presented peptides); type: cell-based, human; settings: in vitro immunogenicity, HLA B*44
HLA-B*44 = assay: MHC binding assay (UV-ligand exchange, β2m ELISA); set-up: species or system human; settings: for Peptide exchange (peptide exchange yield, MHC class I binding score): UV-ligand exchange, β2m ELISA

Row | Peptide exchange (peptide exchange yield, MHC class I binding score) (HLA-B*44) | binding to HLA allotype (HLA-B*44) | Substance | Wells positive [%] (CD8+ T cells)
1 | “++++” (>75% = ++++) |  | 328 (FEYDFLLQRI; listed as Homo sapiens) [compound 328] | “+” (<20% = +)
2 | “+++” (>50 =+++) |  | 329 (NEHPSNNW; listed as Homo sapiens) [compound 329] | “+” (<20% = +)
3 | “+++” (>50 =+++) |  | 338 (SEGSEPALLHSW; listed as Homo sapiens) [compound 338] | “+” (<20% = +)
4 | “++++” (>75% = ++++) |  | 320 (MEVDPIGHVYIF; listed as Homo sapiens) [compound 320] | “+” (<20% = +)
5 | “+++” (>50 =+++) |  | 347 (ALNPYQYQY; listed as Homo sapiens) [compound 347] | 
6 | “+++” (>50 =+++) |  | 339 (SEPALLHSW; listed as Homo sapiens) [compound 339] | “++” (20%-49% = ++)
7 | “++” (>20% = ++) |  | 480 (GEVSGLTKDF; listed as Homo sapiens) [compound 480] | 
8 | “+++” (>50 =+++) |  | 359 (DELFSIALY; listed as Homo sapiens) [compound 359] | 
9 | “++” (>20% = ++) |  | 325 (QEQDVDLVQKY; listed as Homo sapiens) [compound 325] | “+” (<20% = +)
10 | “+++” (>50 =+++) |  | 331 (EDAQGHIW; listed as Homo sapiens) [compound 331] | “++” (20%-49% = ++)
11 | “++++” (>75% = ++++) |  | 353 (GEIIMQNNW; listed as Homo sapiens) [compound 353] | 
12 | “++++” (>75% = ++++) |  | 489 (SEIGKAVGF; listed as Homo sapiens) [compound 489] | 
13 | “++++” (>75% = ++++) |  | 361 (SENLFFASF; listed as Homo sapiens) [compound 361] | 
14 | “+++” (>50 =+++) |  | 321 (AEMLESVIKNY; listed as Homo sapiens) [compound 321] | 
15 | “++” (>20% = ++) |  | 334 (AEDEPAAAHL; listed as Homo sapiens) [compound 334] | “+” (<20% = +)
16 | “+++” (>50 =+++) |  | 344 (EEATGQFHVY; listed as Homo sapiens) [compound 344] | 
17 |  | binds to HLA-B*44 | AEIEADRSY (listed as Homo sapiens) [SEQ ID NO: 531] | 
18 | “+” (>10% = +) |  | 370 (YEDLSQKY; listed as Homo sapiens) [compound 370] | 
19 | “++” (>20% = ++) |  | 332 (MEVPVIKI; listed as Homo sapiens) [compound 332] | 
20 | “++” (>20% = ++) |  | 368 (GEFPVRVQV; listed as Homo sapiens) [compound 368] | 
21 | “+++” (>50 =+++) |  | 341 (EEIEGKGSFTYF; listed as Homo sapiens) [compound 341] | 
22 | “+++” (>50 =+++) |  | 342 (HEFSSPSHL; listed as Homo sapiens) [compound 342] | “+” (<20% = +)
23 | “+++” (>50 =+++) |  | 330 (KEGDLGGKQW; listed as Homo sapiens) [compound 330] | “+” (<20% = +)
24 | “+++” (>50 =+++) |  | 326 (QEMQHFLGL; listed as Homo sapiens) [compound 326] | “+” (<20% = +)

Row | Peptide exchange (peptide exchange yield, MHC class I binding score) (HLA-B*44) | binding to HLA allotype (HLA-B*44) | Substance | Wells positive [%] (CD8+ T cells)
25 | “+++” (>50 =+++) |  | 356 (EEGRVYLF; listed as Homo sapiens) [compound 356] | 
26 | “++++” (>75% = ++++) |  | 365 (SEMNVNMKY; listed as Homo sapiens) [compound 365] | 
27 | “++++” (>75% = ++++) |  | 360 (AEVPTGVII; listed as Homo sapiens) [compound 360] | 
28 | “+++” (>50 =+++) |  | 362 (SEKGVIQVY; listed as Homo sapiens) [compound 362] | 
29 | “+++” (>50 =+++) |  | 357 (RELENCFQIQ; listed as Homo sapiens) [compound 357] | 
30 | “+++” (>50 =+++) |  | 367 (GEVHPSEMI; listed as Homo sapiens) [compound 367] | 
31 | “++” (>20% = ++) |  | 371 (GELALKKKI; listed as Homo sapiens) [compound 371] | 
32 | “+” (>10% = +) |  | 374 (DEVNFLVY; listed as Homo sapiens) [compound 374] | 
33 | “+++” (>50 =+++) |  | 486 (SEDDPILQI; listed as Homo sapiens) [compound 486] | 
34 | “++++” (>75% = ++++) |  | 346 (VEAPGPVHVYW; listed as Homo sapiens) [compound 346] | 
35 | “+++” (>50 =+++) |  | 482 (TEREWADEW; listed as Homo sapiens) [compound 482] | 
36 | “+++” (>50 =+++) |  | 348 (AEIQGNINHV; listed as Homo sapiens) [compound 348] | 
37 | “+++” (>50 =+++) |  | 364 (AETPIQNVI; listed as Homo sapiens) [compound 364] | 
38 | “+++” (>50 =+++) |  | 349 (AEQDMRELTY; listed as Homo sapiens) [compound 349] | 
39 | “++” (>20% = ++) |  | 335 (KELEATKQY; listed as Homo sapiens) [compound 335] | 
40 | “++” (>20% = ++) |  | 355 (SDMVRFHLF; listed as Homo sapiens) [compound 355] | 
41 | “+++” (>50 =+++) |  | 481 (RELQHEHSL; listed as Homo sapiens) [compound 481] | 
42 | “++++” (>75% = ++++) |  | 484 (AEVGFVRFF; listed as Homo sapiens) [compound 484] | 
43 | “+++” (>50 =+++) |  | 373 (MEMQKSPVF; listed as Homo sapiens) [compound 373] | 
44 | “++++” (>75% = ++++) |  | 345 (IEFIHPQAF; listed as Homo sapiens) [compound 345] | 
45 | “++” (>20% = ++) |  | 343 (TEFTTVLY; listed as Homo sapiens) [compound 343] | 
46 | “+++” (>50 =+++) |  | 485 (SEIEDSTKQVF; listed as Homo sapiens) [compound 485] | 
47 | “+++” (>50 =+++) |  | 487 (AEDQLHHSF; listed as Homo sapiens) [compound 487] | 
